According to patent US20170313755A1 (priority 2016, published 2017):
“Also recorded” adds a separate entry of the source.

B1: IGF1 (Y^B16L^B17) analog (ligand)
chain 1: GIVDECCFRSCDLRRLEMYCA
chain 2: GPETLCGAELVDALYLVCGDRGFYFNKPT
notes: Two chain analog; also called IGF analog

Molecular target: T1, human insulin receptor (human, UniProt P06213 28-1382)
T1 construct: whole, on cells; Stood in the assay as plasma membrane fragments on wheat germ agglutinin SPA beads, not as whole cells
Experiment: scintillation proximity competition binding against 125I-insulin, membranes with human insulin receptor
Settings: not given
Procedure: The affinity of each peptide for the insulin or IGF-1 receptor was measured in a competition binding assay utilizing scintillation proximity technology. […] Non-specifically bound (NSB) radioactivity was measured in the wells with a four-fold concentration excess of “cold” native ligand than the highest concentration in test samples. Total bound radioactivity was detected in the wells with no competitor. Percent specific binding was calculated as following: % Specific Binding=(Bound-NSB/Total bound-NSB)×100. IC50 values were determined by using Origin software (OriginLab, Northampton, Mass.).

Row | Molecule | IC50 [nM]
1 | B1 | 0.51

Tested on: STZ-mice
Experiment: Blood glucose in STZ diabetic mice after insulin/antagonist peptide conjugates
Format: in vivo
Settings: 10 nmol/kg, mice fasted 2 hours
Procedure: The peptides were tested in STZ-mice, due to their high fasting blood glucose levels.

Row | Molecule | blood glucose response versus equivalent dose of native insulin
2 | #6(A2)-Cys-Insulin: B29 modified insulin disulfide-conjugated to 6(A2)Cys SAEEEWAQIQSEVWGRGSPSYC (SEQ ID NO: 172) | behaved identically to an equivalent dose of native insulin

Tested on: insulin receptor A (IRA) and insulin receptor B (IRB) isoforms
Experiment: not given
Settings: non-covalent addition (in trans); previous work; cited from earlier work

Row | Molecule | antagonism of native insulin by unconjugated peptide (words)
3 | SLEEEWAQIQSEVWGRGSPSYC (synthetic insulin receptor antagonist peptide) [#6Cys] | incapable of antagonizing native insulin

Same assay, conditions: non-covalent addition (in trans); previous work; listed as #6-Cys; cited from earlier work

Row | Molecule | antagonism of native insulin by unconjugated peptide (words)
4 | SLEEEWAQIQSEVWGRGSPSYC (synthetic insulin receptor antagonist peptide) [#6Cys] | incapable of antagonism in vitro

Tested on: insulin receptor A (IRA) and insulin receptor B (IRB) isoforms
Experiment: Insulin receptor phosphorylation assay in receptor transfected HEK293 cells
Format: cell-based, human
Settings: agonism
Procedure: Color development was stopped 5 min later by adding 0.05 ml 1 N HCl. Absorbance at 450 nm was measured on Titertek Multiscan MCC340 (ThermoFisher, Pittsburgh, Pa.). Absorbance vs. peptide concentration dose response curves were plotted and EC50 values were determined by using Origin software (OriginLab, Northampton, Mass.).
Optical density at 450 nm was graphed as a function of peptide concentration using Origin Pro 9.0 graphing software.

Row | Molecule | agonist (maximal) activity at the insulin receptor isoforms | potency at the insulin receptor isoforms
5 | #6(A1)-Cys-Insulin: B29 modified insulin disulfide-conjugated to 6(A1)Cys ALEEEWAQIQSEVWGRGPSYC (SEQ ID NO: 171) | almost no effect upon bioactivity | –
6 | #6(A2)-Cys-Insulin: B29 modified insulin disulfide-conjugated to 6(A2)Cys SAEEEWAQIQSEVWGRGSPSYC (SEQ ID NO: 172) | restored almost all of the potency and activity | restored almost all of the potency and activity
7 | #6(A3)-Cys-Insulin: B29 modified insulin disulfide-conjugated to 6(A3)Cys SLAEEWAQIQSEVWGRGSPSYC (SEQ ID NO: 173) | little effect on maximal activity | shift the potency
8 | #6(I2)-Cys-Insulin: B29 modified insulin disulfide-conjugated to 6(I2)Cys SIEEEWAQIQSEVWGRGSPSYC (SEQ ID NO: 175) | very similar, low maximal activities | –
9 | #6(Q2)-Cys-Insulin: B29 modified insulin disulfide-conjugated to 6(Q2)Cys SQEEEWAQIQSEVWGRGSPSYC (SEQ ID NO: 180) | without a significant decrease in maximal activity; also recorded: high of maximal activity | shift in potency; also recorded: decrease in potency
10 | #6(V2)-Cys-Insulin: B29 modified insulin disulfide-conjugated to 6(V2)Cys SVEEEWAQIQSEVWGRGSPSYC (SEQ ID NO: 176) | slight increase in maximal activity | –
11 | #6(dL2)-Cys-Insulin: B29 modified insulin disulfide-conjugated to 6(dL2)Cys SdLEEEWAQIQSEVWGRGSPSYC (SEQ ID NO: 174) | low activity | decreased potency
12 | #6(des1-5)-Cys-Insulin: B29 modified insulin disulfide-conjugated to 6(des1-5)Cys WAQIQSEVWGRGSPSYC (SEQ ID NO: 170) | full activity | full potency
13 | #Insulin-Cys-4: B29 modified insulin disulfide-conjugated to Cys4 CGSLDESFYDWFERQLG (SEQ ID NO: 166) | only a small change in maximal activity | a small decrease in potency
14 | modified insulin: native insulin modified with an NHS ester to carry one additional thiol functional group at the B29 lysine | fully activating the insulin receptor isoforms | slightly reduced potency

Same assay, conditions: agonism, both receptor isoforms

Row | Molecule | maximal activity relative to native insulin
15 | #6(F2)-Cys-Insulin: B29 modified insulin disulfide-conjugated to 6(F2)Cys SFEEEWAQIQSEVWGRGSPSYC (SEQ ID NO: 177) | ~50%
16 | #6(W2)-Cys-Insulin: B29 modified insulin disulfide-conjugated to 6(W2)Cys SWEEEWAQIQSEVWGRGSPSYC (SEQ ID NO: 178) | approximately 60%
17 | #6(Y2)-Cys-Insulin: B29 modified insulin disulfide-conjugated to 6(Y2)Cys SYEEEWAQIQSEVWGRGSPSYC (SEQ ID NO: 179) | approximately 70%

Same assay, conditions: conjugate against native insulin

Row | Molecule | antagonism at the insulin receptor isoforms
18 | #4-Cys-Insulin: B29 modified insulin disulfide-conjugated to 4Cys GSLDESFYDWFERQLGC (SEQ ID NO: 167) | some degree of antagonism

Tested on: mice
Experiment: Comparative insulin tolerance tests on mice (acylated insulin analogs)
Format: in vivo
Settings: 27 nmol/kg and 90 nmol/kg; even after 8 hours
Procedure: The polypeptides were tested at two different concentrations (27 nmol/kg and 90 nmol/kg). The acylated insulins included MIU-41, MIU-36 and MIU-37.
The compounds were tested at two different concentrations (27 nmol/kg and 90 nmol/kg).

Row | Molecule | blood glucose lowering relative to native insulin
19 | [B^1(C16-K0,H5,H10,Y16,L17)26A: A1(N18,N21)] [MIU-36] | more basal and sustained lowered glucose levels
20 | [B^1(H5,H10,Y16,L17)26A: A^1(H8,rEC16-K14,N18,N21)] [MIU-41] | more basal and sustained lowered glucose levels
21 | [B^1(H5,H10,Y16,L17,C16rE-K22)26A: A^1(N18,N21)] [MIU-37] | more basal and sustained lowered glucose levels
